According to ChEMBL document CHEMBL1201862, “PubChem BioAssay data set” (2004):
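A five-concentration, 48-hour dose response in 96-well plates underlies each endpoint, interpolated linearly between surrounding concentrations. GI50 = concentration required for 50% inhibition of growth.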 Active and inactive are the calls of the source. Cut-off read from the data, not from the text of the source: active = GI50 up to about 1.1 µM and inactive = higher.

Columns and labels:
Assay in all cases: growth of human tumour cells (NCI), 48 h
COLO 205 = test system: COLO 205
NCI-H460 = test system: NCI-H460
MCF7 = test system: MCF7
K562 = test system: K562
MOLT-4 = test system: MOLT-4
SK-MEL-28 = test system: SK-MEL-28
T47D = test system: T47D
PC-3 = test system: PC-3
SNB-19 = test system: SNB-19
SR = test system: SR
OVCAR-8 = test system: OVCAR-8
KM12 = test system: KM12
SK-OV-3 = test system: SK-OV-3
SNB-75 = test system: SNB-75
MDA-MB-231 = test system: MDA-MB-231
NCI-H522 = test system: NCI-H522
HCT-15 = test system: HCT-15
HCC 2998 = test system: HCC 2998
MDA-MB-435 = test system: MDA-MB-435
UACC-62 = test system: UACC-62
BT-549 = test system: BT-549
HOP-92 = test system: HOP-92
DU-145 = test system: DU-145
SK-MEL-5 = test system: SK-MEL-5
CCRF-CEM = test system: CCRF-CEM
MDA-N = test system: MDA-N
NCI-H226 = test system: NCI-H226
SF-539 = test system: SF-539
NCI-H23 = test system: NCI-H23
Hs-578T = test system: Hs-578T
786-0 = test system: 786-0
CAKI-1 = test system: CAKI-1
RXF 393 = test system: RXF 393
RPMI-8226 = test system: RPMI-8226
OVCAR-3 = test system: OVCAR-3
EKVX = test system: EKVX
UACC-257 = test system: UACC-257
OVCAR-5 = test system: OVCAR-5
SW-620 = test system: SW-620
U-251 = test system: U-251
HT-29 = test system: HT-29
HOP-62 = test system: HOP-62
SK-MEL-2 = test system: SK-MEL-2
NCI/ADR-RES = test system: NCI/ADR-RES
SN12C = test system: SN12C
LOX IMVI = test system: LOX IMVI
OVCAR-4 = test system: OVCAR-4
UO-31 = test system: UO-31
HCT-116 = test system: HCT-116
TK-10 = test system: TK-10
ACHN = test system: ACHN
M14 = test system: M14
SF-268 = test system: SF-268
IGROV-1 = test system: IGROV-1
A498 = test system: A498
Malme-3M = test system: Malme-3M
HL-60 = test system: HL-60
SF-295 = test system: SF-295
A549 = test system: A549

COc1cccc(OC)c1/C=C1\OC(=O)c2cccc(OC)c21
GI50 (COLO 205): 2.88 µM (inactive) | GI50 (NCI-H460): 2.65 µM (inactive) | GI50 (MCF7): 3.14 µM (inactive) | GI50 (K562): 0.527 µM (active) | GI50 (MOLT-4): 5.64 µM (inactive) | GI50 (SK-MEL-28): 6.7 µM (inactive) | GI50 (T47D): 5.33 µM (inactive) | GI50 (PC-3): 4.72 µM (inactive) | GI50 (SNB-19): 4.74 µM (inactive) | GI50 (SR): 0.92 µM (active) | GI50 (OVCAR-8): 4.59 µM (inactive) | GI50 (KM12): 1.74 µM (inactive) | GI50 (SK-OV-3): 5.2 µM (inactive) | GI50 (SNB-75): 2.96 µM (inactive) | GI50 (MDA-MB-231): 12.8 µM (inactive) | GI50 (NCI-H522): 2.5 µM (inactive) | GI50 (HCT-15): 2.24 µM | GI50 (HCC 2998): 3.16 µM (inactive) | GI50 (MDA-MB-435): 0.526 µM (active) | GI50 (UACC-62): 2.62 µM (inactive) | GI50 (BT-549): 5.22 µM (inactive) | GI50 (HOP-92): 8.69 µM (inactive) | GI50 (DU-145): 5.32 µM (inactive) | GI50 (SK-MEL-5): 3.13 µM (inactive) | GI50 (CCRF-CEM): 3.84 µM (inactive) | GI50 (MDA-N): 0.596 µM (active) | GI50 (NCI-H226): 3.84 µM (inactive) | GI50 (SF-539): 2.3 µM (inactive) | GI50 (NCI-H23): 19.4 µM (inactive) | GI50 (Hs-578T): 3.96 µM (inactive) | GI50 (786-0): 5.02 µM (inactive) | GI50 (CAKI-1): 4.68 µM (inactive) | GI50 (RXF 393): 4.61 µM (inactive) | GI50 (RPMI-8226): 3.46 µM (inactive) | GI50 (OVCAR-3): 2.51 µM (inactive) | GI50 (EKVX): 10.3 µM (inactive) | GI50 (UACC-257): 7.43 µM (inactive) | GI50 (OVCAR-5): 13.2 µM (inactive) | GI50 (SW-620): 3.37 µM (inactive) | GI50 (U-251): 3.32 µM (inactive) | GI50 (HT-29): 2.11 µM (inactive) | GI50 (HOP-62): 5.62 µM (inactive) | GI50 (SK-MEL-2): 4.14 µM (inactive) | GI50 (NCI/ADR-RES): 3.51 µM (inactive) | GI50 (SN12C): 20 µM (inactive) | GI50 (LOX IMVI): 6.28 µM (inactive) | GI50 (OVCAR-4): > 30.1 µM (inactive) | GI50 (UO-31): 5.47 µM (inactive) | GI50 (HCT-116): 3.87 µM (inactive) | GI50 (TK-10): 11.5 µM (inactive) | GI50 (ACHN): 8.59 µM (inactive) | GI50 (M14): 4.1 µM (inactive) | GI50 (SF-268): 6.4 µM (inactive) | GI50 (IGROV-1): 4.71 µM (inactive) | GI50 (A498): 4.14 µM (inactive) | GI50 (Malme-3M): 3.42 µM (inactive) | GI50 (HL-60): 0.931 µM (active) | GI50 (SF-295): 3.13 µM (inactive) | GI50 (A549): 7.36 µM (inactive)

CCOc1ccc2ccc3cccnc3c2n1
GI50 (COLO 205): 28.7 µM (inactive) | GI50 (NCI-H460): 36.3 µM (inactive) | GI50 (MCF7): 18.4 µM (inactive) | GI50 (K562): 31.9 µM (inactive) | GI50 (SK-MEL-28): > 100 µM (inactive) | GI50 (T47D): 32.7 µM (inactive) | GI50 (PC-3): 34.2 µM (inactive) | GI50 (SNB-19): > 100 µM (inactive) | GI50 (SR): 18.9 µM (inactive) | GI50 (OVCAR-8): 72.8 µM (inactive) | GI50 (KM12): 45.4 µM (inactive) | GI50 (SK-OV-3): 43.4 µM (inactive) | GI50 (SNB-75): 85.9 µM (inactive) | GI50 (MDA-MB-231): 38.4 µM (inactive) | GI50 (NCI-H522): > 100 µM (inactive) | GI50 (HCT-15): 54.3 µM | GI50 (HCC 2998): 51.6 µM (inactive) | GI50 (MDA-MB-435): 49.3 µM (inactive) | GI50 (UACC-62): 27 µM (inactive) | GI50 (BT-549): > 100 µM (inactive) | GI50 (HOP-92): 44.7 µM (inactive) | GI50 (DU-145): > 100 µM (inactive) | GI50 (SK-MEL-5): 32.7 µM (inactive) | GI50 (CCRF-CEM): 59 µM (inactive) | GI50 (MDA-N): > 100 µM (inactive) | GI50 (NCI-H226): 39 µM (inactive) | GI50 (SF-539): > 100 µM (inactive) | GI50 (NCI-H23): 61.7 µM (inactive) | GI50 (Hs-578T): > 100 µM (inactive) | GI50 (786-0): 66.2 µM (inactive) | GI50 (CAKI-1): > 100 µM (inactive) | GI50 (RXF 393): 68.9 µM (inactive) | GI50 (RPMI-8226): 23.2 µM (inactive) | GI50 (OVCAR-3): 21.9 µM (inactive) | GI50 (EKVX): 36.5 µM (inactive) | GI50 (UACC-257): 26.9 µM (inactive) | GI50 (OVCAR-5): 55.6 µM (inactive) | GI50 (SW-620): 62.7 µM (inactive) | GI50 (U-251): 48.4 µM (inactive) | GI50 (HT-29): 34.1 µM (inactive) | GI50 (HOP-62): 18.5 µM (inactive) | GI50 (SK-MEL-2): 81.7 µM (inactive) | GI50 (NCI/ADR-RES): 37.7 µM (inactive) | GI50 (SN12C): > 100 µM (inactive) | GI50 (LOX IMVI): 49.1 µM (inactive) | GI50 (OVCAR-4): 69.2 µM (inactive) | GI50 (UO-31): 64 µM (inactive) | GI50 (HCT-116): 34 µM (inactive) | GI50 (TK-10): 34.2 µM (inactive) | GI50 (ACHN): 40.6 µM (inactive) | GI50 (M14): 47.2 µM (inactive) | GI50 (SF-268): > 100 µM (inactive) | GI50 (IGROV-1): 38.5 µM (inactive) | GI50 (A498): 21 µM (inactive) | GI50 (Malme-3M): 97.1 µM (inactive) | GI50 (HL-60): 22.3 µM (inactive) | GI50 (SF-295): 39.3 µM (inactive) | GI50 (A549): 61 µM (inactive)
